{
  "source": "patent US12528821B2",
  "about": "“pH-dependent composition matters useful for study and diagnosis of alzheimer's disease” (Purdue Research Foundation, priority 2019, dated 2026)",
  "key": {"[1]": {"test": "pH-sensitivity: fluorescence intensity at various pH conditions", "type": "physicochemical", "protocol": "The cell culture medium was treated with dilute HCl and NaOH solutions to obtain different solutions with pH of 1.0 to 9.0 for the assay. […] Different dilutions for each pH condition was prepared at concentrations of 0.5, 1.0, 2.0, and 5.0 μM in a 96-well plate."}, "[2]": {"system": "microglia and astrocytes in rat hippocampal tissue sections", "test": "Phagocytosis assay in rat hippocampal tissue slices (in situ)", "conditions": "IBA1+ and GFAP+ staining"}, "HMC3 cells": {"system": "HMC3 cells", "test": "Phagocytosis assay with live cells (IncuCyte live-cell imaging)", "type": "cell-based, human", "protocol": "(§1) To visualize the phagocytosis of hAβ^pH in live microglial cells, immortalized human microglial clone 3 (HMC3) cells and mouse BV2 and N9 microglial cells were treated with 0.1-5.0 μM doses of hAβ^pH and live-cell images were acquired every 30 minutes for 24 hours on the IncuCyte™ ZOOM Live Content Imaging system (FIGS. 3A-3B). The green channel on the IncuCyte™ ZOOM system allows for excitation and emission wavelengths of 460/524 nm and thus the hAβ^pH reporter was optimal for use on the instrument.\nCells were seeded at 5000 cells per well (200 μL per well) in a 96-well flat bottom plate (Falcon) for approximately 16 hours (overnight). The lyophilized hAβ^pH conjugate was dissolved in the culture medium for each cell type and filtered using 0.22 μm syringe filter. The adherent cells (BV2, N9, HMC3) were treated with a final concentration of hAβ^pH at 0, 0.1, 0.5, 1.0, 2.0, and 5.0 μM by replacing one-half of the culture medium (100 μL) with 2× concentration. Two technical replicates were used for each treatment concentration. […] The fluorescence intensity, cell confluence, and the integrated fluorescence intensity data was obtained and analyzed using the GraphPad Prism® software. The total hAβ^pH phagocytosis per concentration was calculated as: […]"}, "primary mouse microglia": {"system": "primary mouse microglia", "test": "Phagocytic uptake by primary microglia ex vivo (confocal, flow cytometry)", "type": "cell-based"}, "[3]": {"system": "HMC3, BV2, and N9 microglial cells", "test": "Confocal imaging of actin filaments and nuclei in paraformaldehyde-fixed phagocytic microglial cells", "type": "cell-based, human, mouse", "conditions": "5.0 μM for 2 hours, fixed with 4% paraformaldehyde", "protocol": "Fixation of cells and using target protein markers along with hAβ^pH can inform us about the molecular mechanisms involved in microglial phagocytosis with confocal microscopy. To confirm that the hAβ^pH reporter can maintain its fluorescence in fixed cells, HMC3, BV2, and N9 microglial cells were fixed with common cell staining reagents. The cells were treated with 5.0 μM of hAβ^pH for 2 hours and fixed with 4% paraformaldehyde followed by the addition of the phalloidin dye to visualize cellular integrity via the staining of the F-actin filaments (FIG. 5).\nFor labeling the cells with Phalloidin and DAPI, 20,000 cells/250 μL were plated in 14 mm microwells of the 35 mm glass bottom dishes (MatTek #P35G-1.5-14-C) and kept overnight. The cells were treated with 5.0 μM hAβ^pH for 2 hours on the next day. Then the medium was aspirated, and cells were fixed with 4% paraformaldehyde for 20 mins, and then gently washed once with PBS. Phalloidin-iFluor 555 reagent was diluted at a concentration of 1 μL/mL in PBS and added to the fixed cells for 10 minutes for staining the actin filaments. To label the nuclei, DAPI was diluted at a concentration of 1 μL/mL. […] Fluorescence images of phagocytic microglial cells were captured using 40× and 60× objectives on the Nikon AR-1 MP confocal laser microscope. […]"}, "HMC3, N9, and BV2 cells": {"system": "HMC3, N9, and BV2 cells", "test": "Confocal imaging of intracellular acidic organelles (LysoTracker) in fixed phagocytic microglial cells", "type": "cell-based, human, mouse", "conditions": "5.0 μM, 2-hour time point", "excerpt": "To visualize the localization of the hAβ^pH within the microglial cell cytoplasm, the acidic intracellular compartments were labeled with LysoTracker™ DND-99 that stains the lysosomal organelles of the cells. […] It has been recently shown that microglia in vitro recognize and phagocytose Aβ peptides through scavenger receptors,^8 Toll-Like Receptor 2 (TLR2),^17 Cluster of Differentiation 14 (CD14),^18 and Triggering Receptors Expressed on Myeloid Cells 2 (TREM2).^19 Thus, our hAβ^pH reporter serves as a valuable chemical tool in delineating the role of several receptor proteins involved in the Aβ uptake of live and fixed microglial cells using cell staining reagents and by using specific antibodies such as anti-CD14, anti-TREM2, etc. Additionally, the role of inflammation, including the effects of inflammatory cytokines, such as IL-la and TNF-α, on Aβ clearance is not resolved. Thus, our hAβ^pH will be a valuable for studying hAβ^pH phagocytosis under the influence of inflammatory cytokines or small molecule inhibitors.\nLysoTracker® Red DND-99 was used for labeling the intracellular organelles of the cells to observe localization of hAβ^pH sensors inside the cells after phagocytosis. […] Fluorescence images of phagocytic microglial cells were captured using 40× and 60× objectives on the Nikon AR-1 MP confocal laser microscope. […]"}, "[4]": {"test": "Atomic Force Microscopy analysis of aggregation", "type": "physicochemical", "conditions": "compared with non-conjugated Aβ1-42", "protocol": "AFM sample preparation: The manufacturer's protocol was followed for sample preparation, image acquiring and analysis.\n1 mM Aβ solution was prepared by adding HFIP directly to the vial (0.5 mg Aβ or hAβ^pH or recombinant Aβ(M1-42) in 93.35 μL HFIP). The peptide should be completely dissolved. The solution was incubated at room temperature (RT) for at least 30 min. HFIP was allowed to evaporate in the open tubes overnight in the fume hood or using Argon/Nitrogen gas and then dry down under high vacuum for 1 h without heating to remove any remaining traces of HFIP and moisture. The resulting peptide thin clear film formed at the bottom of the tubes. The tubes containing dried peptides were stored at −20° C. until further use.\nPrior to use, tube containing peptide film was allowed to come to RT. Then, 5 mM Aβ DMSO stock was prepared by adding 20 μL fresh dry DMSO to 0.45 mg. Pipette thoroughly, scraping down the sides of the tube near the bottom to ensure complete resuspension of peptide film. Vortex well (˜30 sec) and pulse in a microcentrifuge to collect solution at the bottom of the tube. Sonicate 5 mM Aβ DMSO solution for 10 min. Use this preparation as the starting material for unaggregated Aβ and oligomeric Aβ. For oligomer formation, samples were incubated at 4° C. for 24 hr.\nSample preparation was done with proper sterile technique with sterile media and MilliQ-water. […]"}, "[5]": {"system": "microglia and astrocytes in the cerebral cortex", "test": "In vivo two-photon imaging of the barrel cortex through a cranial window after topical application", "design": "species or system mouse"}, "N9 microglial cells": {"system": "N9 microglial cells", "test": "Phagocytosis assay with live cells (IncuCyte live-cell imaging)", "type": "cell-based, mouse", "protocol": "as §1\nCells were seeded at 5000 cells per well (200 μL per well) in a 96-well flat bottom plate (Falcon) for approximately 16 hours (overnight). The lyophilized hAβ^pH conjugate was dissolved in the culture medium for each cell type and filtered using 0.22 μm syringe filter. The adherent cells (BV2, N9, HMC3) were treated with a final concentration of hAβ^pH at 0, 0.1, 0.5, 1.0, 2.0, and 5.0 μM by replacing one-half of the culture medium (100 μL) with 2× concentration. Two technical replicates were used for each treatment concentration. The plates were immediately placed in the IncuCyte® S3 Live-Cell Analysis System (Essen BioScience) and four images per well were captured at 30-minute time intervals for 24 hours. The fluorescence intensity, cell confluence, and the integrated fluorescence intensity data was obtained and analyzed using the GraphPad Prism® software. The total hAβ^pH phagocytosis per concentration was calculated as:\n[formula] wherein, Total Integrated Intensity is defined as the total sum of hAβ^pH's fluorescent intensity in the image and Relative Total Integrated Intensity is defined as Total Integrated Intensity (t)—Total Integrated Intensity (t=0) for each concentration. Flow Cytometry Analysis of BV-2 Microglia Phagocytosis"}, "BV2 microglial cells [6]": {"system": "BV2 microglial cells", "test": "Phagocytosis assay with live cells (IncuCyte live-cell imaging)", "type": "cell-based, mouse", "protocol": "Cells were seeded at 5000 cells per well (200 μL per well) in a 96-well flat bottom plate (Falcon) for approximately 16 hours (overnight). […] Two technical replicates were used for each treatment concentration. The plates were immediately placed in the IncuCyte® S3 Live-Cell Analysis System (Essen BioScience) and four images per well were captured at 30-minute time intervals for 24 hours. The fluorescence intensity, cell confluence, and the integrated fluorescence intensity data was obtained and analyzed using the GraphPad Prism® software.\nFlow Cytometry Analysis of BV-2 Microglia Phagocytosis"}, "[7]": {"system": "primary immunopanned rat astrocytes", "test": "Uptake by primary immunopanned astrocytes in serum-free conditions", "type": "cell-based", "conditions": "fixed, GFAP stained"}, "BV2 microglial cells [8]": {"system": "BV2 microglial cells", "test": "Flow cytometry analysis of BV-2 microglia phagocytosis", "type": "cell-based, mouse", "conditions": "0.5 and 1.0 μM for 1 hour", "protocol": "BV2 microglial cells were seeded at a density of 250 k cells/well in a 6-well plate for around 14 hr overnight. […] After 2 hours, the plate was brought to the hood, placed on ice to stop phagocytosis, and cell culture medium containing hAβ^pH was aspirated. The cells were washed once with cold PBS. Next, the cells were treated with ice cold PBS with 2 mM EDTA for 2 mins on ice to initiate detachment of the cells from the wells. The cells were fully detached from the wells with very gentle pipetting and transferred into falcon tubes. The cells were centrifuged once at 1400 RPM for 3 mins. The PBS/EDTA supernatant was aspirated out and the cell pellets were re-suspended in FACS buffer (PBS, 25 mM HEPES, 2 mM EDTA, and 2% FBS). Five minutes before analysis of each sample tube, Propidium Iodide (PI) was added to the sample (40 ng/1 mL cell suspension) for staining of live/dead cells. […] The filed were then analyzed on FlowJo V10 software. Gating strategy is indicated in FIG. 4 on the main manuscript."}, "[9]": {"system": "retinal IBA1+ microglia and GFAP+ astrocytes", "test": "Subretinal injection, in vivo uptake by retinal microglia and astrocytes", "conditions": "rat"}, "[10]": {"system": "cortical IBA1+ microglia and GFAP+ astrocytes", "test": "Stereotaxic microinjection in the somatosensory cortex, staining of fixed tissue sections", "type": "in vivo, mouse"}, "[11]": {"conditions": "P7 mouse, periventricular white matter, 72 h"}},
  "data": [
    {"substance": "RODO-conjugated hAβ^pH: conjugate of the Aβ1-42 peptide with pHrodo-Red (RODO) fluorophore", "values": [
      {"measurement": "pH range of increased fluorescence", "setting": "[1]; 0.5, 1.0, 2.0, and 5.0 μM, FIG. 1C", "value": "1.0-7.0"}
    ]},
    {"substance": "hAβ^pH: pH-dependent fluorescent conjugate of human Aβ1-42 peptide linked to amine-reactive Protonex Green 500, SE (PTXG) fluorophore", "values": [
      {"measurement": "phagocytosis in situ", "setting": "[2]", "value": "phagocytosed by both microglia and astrocytes in situ"},
      {"measurement": "phagocytosis", "setting": "HMC3 cells; 5.0 μM", "value": "increased phagocytosis"},
      {"measurement": "time period of increased intracellular fluorescence", "setting": "HMC3 cells; 1.0 and 2.0 μM doses, followed by gradual decrease", "value": "1 to 8", "unit": "h"},
      {"measurement": "green fluorescence in live (ZV-) cells (flow cytometry)", "setting": "primary mouse microglia; 0.5, 1.0, and 2.0 μM for 1 hour", "value": "green fluorescence is measured"},
      {"measurement": "phagocytosis ex vivo (confocal, LysoTracker Red)", "setting": "primary mouse microglia; defined, reduced-serum media, fixed cells", "value": "phagocytose Aβ^pH ex vivo"},
      {"measurement": "fluorescence retained in fixed cells (confocal, phalloidin)", "setting": "[3]", "value": "showed green fluorescence"},
      {"measurement": "co-localization with LysoTracker dye", "setting": "HMC3, N9, and BV2 cells", "value": "confirmed the presence of hAβ^pH within the acidic phagosomes"},
      {"measurement": "ability to aggregate (AFM)", "setting": "[4]", "value": "aggregate similar to the non-conjugated Aβ"},
      {"measurement": "fluorescence in cell somata after topical application", "setting": "[5]; mouse barrel cortex, two-photon imaging", "value": "fluorescence increases in cell somata"},
      {"measurement": "colocalization with IBA1, CD68, and GFAP", "setting": "[5]; perfusion-fixed 1.5 to 3 hours after imaging, cortical slices", "value": "most Aβ^pH is taken up by microglia and astrocytes in vivo"},
      {"measurement": "intracellular fluorescence beyond 18 hours", "setting": "N9 microglial cells; 5.0 μM", "value": "began to decrease"},
      {"measurement": "time of peak intracellular green fluorescence", "setting": "N9 microglial cells; 5.0 μM", "value": "12 to 18", "unit": "h"},
      {"measurement": "intracellular fluorescence (phagocytosis) over time", "setting": "N9 microglial cells; 1.0 and 2.0 μM doses", "value": "gradual increase in intracellular fluorescence"},
      {"measurement": "intracellular fluorescence during the 18-hour time period", "setting": "BV2 microglial cells [6]; 5.0 μM dose", "value": "increased intracellular fluorescence"},
      {"measurement": "intracellular fluorescence (phagocytosis) over time", "setting": "BV2 microglial cells [6]; 1.0 and 2.0 μM doses", "value": "gradual increase in intracellular fluorescence"},
      {"measurement": "phagocytosis by astrocytes", "setting": "[7]", "value": "also phagocytose Aβ^pH"},
      {"measurement": "green fluorescence in live (PI-) cells (flow cytometry)", "setting": "BV2 microglial cells [8]", "value": "green fluorescence is measured"},
      {"measurement": "fluorescence intensity at the physiological pH of 7.4", "setting": "[1]; pH 7.4", "value": "did not show an increased fluorescence intensity"},
      {"measurement": "fluorescence in retinal astrocytes (quantification)", "setting": "[9]; 3 time points, FIG. 11G", "value": "No fluorescence was detected"},
      {"measurement": "phagocytosis by GFAP+ retinal astrocytes in vivo", "setting": "[9]; FIG. 11F", "value": "phagocytose Aβ^pH in vivo"},
      {"measurement": "phagocytic uptake at the 24 h timepoint", "setting": "[10]; P7 mouse, periventricular white matter, 24 h", "value": "phagocytic uptake of Aβ^pH by IBA1^+ microglia and GFAP^+ astrocytes"},
      {"measurement": "fluorescence in GFAP+ astrocytes at 72 h", "setting": "[10]; [11]", "value": "do not show any green fluorescence"},
      {"measurement": "fluorescence in IBA1+ microglia at 72 h", "setting": "[10]; [11]", "value": "bright green fluorescence"},
      {"measurement": "fluorescence within microglia vs astrocytes", "setting": "[10]; pia and white matter regions", "value": "more Aβ^pH uptake by microglia compared to astrocytes"}
    ]}
  ]
}
